From US10899754B2, “Modulators of indoleamine 2,3-dioxygenase” (GLAXOSMITHKLINE INTELLECTUAL PROPERTY DEVELOPMENT LIMITED, priority 2016, dated 2021)
Like-named read-outs stand apart in the source and are kept apart here.

Columns and labels:
[1] = biological target: T1, ePL tagged IDO1 (Homo sapiens, UniProt P14902); experiment: CETSA (Cellular Thermal Shifting assay) in Hela cells; assay type: binding; conditions: BacMam ePL tagged IDO1, 3 hours at 37° C., heated at 53° C. for 3 min
T1 construct: expressed in transfected cells; host or cells: HeLa cells transduced with BacMam virus
Description: Cellular Thermal Shifting assays were used to directly monitor the ligand binding to target proteins in cells. Hela cells were transduced with BacMam virus expressing ePL tagged IDO1 overnight. The cells were then plated over the compounds for 3 hours at 37° C. in cell culture medium containing 1% FBS. The plates were then sealed and heated at 53° C. for 3 min. InCell Hunter reagents were added and luminescence was read in 90 min.

[2] = biological target: T2, indoleamine 2, 3-dioxygenase (IDO1) (Homo sapiens, UniProt P14902); experiment: IDO1 PBMC RapidFire MS assay (kynurenine detection by mass spectrometry); assay type: cell-based; parameters: to induce the expression of indoleamine 2, 3-dioxygenase (IDO1); host or cells: human PBMC stimulated with IFN-gamma and LPS; conditions: human PBMC stimulated with IFN-γ and LPS, 2 days; for IC50: pIC50, read-out: PBMC PXC50 (converted)
In short: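 Kynurenine output, read by RapidFire mass spectrometry as ratio to an internal standard, was measured after 2-day compound exposure (11-point, 3-fold dilutions) of human PBMCs induced with 100 ng/ml IFN-γ and 50 ng/ml LPS. Cell viability tracked alongside via ATP luminescence; XC50 from curve fitting.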

[3] = test system: human peripheral blood mononuclear cells (PBMC); experiment: PBMC cytotoxicity assay (CellTiter-Glo); assay type: cell-based; conditions: 2 days, pCC50
In short: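 % cytotoxicity was taken from CellTiter-Glo luminescence, using wells without cells and stimulated DMSO wells as references, and fitted by four-parameter curve to give XC50. Cells were human PBMC at 50,000 per well, activated with 100 ng/ml IFN-γ plus 50 ng/ml LPS. Incubation with 11-point, 3-fold dilution series ran for 2 days at 37 °C.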

[4] = test system: human epithelial HeLa cells; experiment: HeLa cytotoxicity assay (CellTiter-Glo); assay type: cell-based; conditions: pCC50
In short: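 Read-out is CellTiter-Glo luminescence after 2 days at 37 °C, on IFN-γ-stimulated (10 nM) HeLa cells seeded at 5,000/well with compounds in 11-point 3-fold dose series. pCC50 from four-parameter curve fit; wells without cells set 100% cytotoxicity, stimulated cells with DMSO set 0%.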

[5] = biological target: T2, indoleamine 2, 3-dioxygenase (IDO1); experiment: IDO1 HeLa RapidFire MS assay (kynurenine detection by mass spectrometry); assay type: cell-based; parameters: to induce the expression of indoleamine 2, 3-dioxygenase (IDO1); conditions: HeLa cells, pIC50, read-out: IDO1_HELA_PXC50 (converted)
In short: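 Compound potency reported as pIC50 from kynurenine/internal-standard ratio (RapidFire MS) in supernatant of IFN-γ-induced (10 nM) HeLa cells, 5,000 per well, after 2 days' treatment with 11-point dilutions. Cytotoxicity in the same format by luminescent ATP detection, reported as pCC50.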

T1 sequence (P14902 whole entry): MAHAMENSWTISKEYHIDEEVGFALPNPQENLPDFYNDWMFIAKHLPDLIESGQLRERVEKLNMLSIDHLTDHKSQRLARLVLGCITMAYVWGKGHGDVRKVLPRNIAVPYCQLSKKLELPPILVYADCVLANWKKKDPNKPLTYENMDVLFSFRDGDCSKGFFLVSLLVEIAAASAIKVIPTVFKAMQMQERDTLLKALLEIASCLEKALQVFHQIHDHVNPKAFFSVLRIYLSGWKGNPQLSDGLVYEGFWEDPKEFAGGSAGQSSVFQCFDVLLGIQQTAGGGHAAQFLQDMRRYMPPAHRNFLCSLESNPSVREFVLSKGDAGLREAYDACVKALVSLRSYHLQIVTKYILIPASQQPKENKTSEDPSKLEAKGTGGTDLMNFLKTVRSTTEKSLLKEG
T2 sequence (P14902 whole entry): as above

| EC50 ([1]; read-out: pXC50_1 (converted)) [nM] | EC50 ([1]; read-out: pXC50_2 (converted)) [nM] | IC50 [2] [nM] | IC50 [5] [nM] | pXC50_1 [1] | pXC50_2 [1] | PBMC PXC50 ([2]; pIC50) | Compound | PBMC TOX PXC50 [3] | HELA_IDO1_TOX_PXC50 [4] |
| --- | --- | --- | --- | --- | --- | --- | --- | --- | --- |
| 257 | 316 | 1.58 | – | – | – | – | CC(C)CN(c1ccc([C@H](C)CC(=O)O)cc1Nc1ccc(C#N)cn1)C1CCOCC1 [Example 16, (R)-3-(3-((5-cyanopyridin-2-yl)amino)-4-(isobutyl(tetrahydro-2H-pyran-4-yl)amino)phenyl)butanoic Acid] | <5 | – |
| 13.8 | 20.9 | 0.631 | – | – | – | – | CC(C)CN(c1ccc([C@H](C)CC(=O)O)cc1Nc1ccc(Cl)nc1)C1CCOCC1 [Example 6, (R)-3-(3-((6-chloropyridin-3-yl)amino)-4-(isobutyl(tetrahydro-2H-pyran-4-yl)amino)phenyl)butanoic Acid] | <5 | – |
| 112 | 191 | 1 | – | – | – | – | CC(C)CN(c1ccc([C@H](C)CC(=O)O)cc1Nc1ccc(Cl)nn1)C1CCOCC1 [Example 11, (R)-3-(3-((6-chloropyridazin-3-yl)amino)-4-(isobutyl(tetrahydro-2H-pyran-4-yl)amino)phenyl)butanoic Acid] | <5 | – |
| 1.7 | – | 0.631 | – | – | – | – | CC(C)CN(c1ccc([C@H](C)CC(=O)O)cc1Nc1nc(C(F)(F)F)ns1)[C@H]1CC[C@H](O)CC1 [Example 44, (R)-3-(4-(((1r,4R)-4-hydroxycyclohexyl) (isobutyl)amino)-3-((3-(trifluoromethyl)-1,2,4-thiadiazol-5-yl)amino)phenyl)butanoic Acid] | <5 | – |
| 1.7 | – | 1.58 | – | – | – | – | CO[C@H]1CC[C@@H](N(CC(C)C)c2ccc([C@H](C)CC(=O)O)cc2Nc2nc(C(F)(F)F)n[nH]2)CC1 [Example 51] | <5 | – |
| > 100000 | – | – | 5010 | – | – | – | CC(C)CN(c1ccc(-c2ccccc2C(=O)NCCCCCN)cc1Nc1nc(C(F)(F)F)ns1)C1CCCCC1 [example 283, N-(5-aminopentyl)-4′-[cyclohexyl(2-methylpropyl)amino]-3′-{[3-(trifluoromethyl)-1,2,4-thiadiazol-5-yl]amino}-[1,1′-biphenyl]-2-carboxamide] | – | <5 |
| – | – | 2510 | 2000 | – | – | – | CC(C)CN(c1ccc(C(C)CC(=O)O)cc1NC1=N[C@H](C)CO1)C1CCCCC1 (stereo partly drawn) [example 151, 3-{4-[cyclohexyl(2-methylpropyl)amino]-3-{[(4R)-4-methyl-4,5-dihydro-1,3-oxazol-2-yl]amino}phenyl}butanoic acid] | <5 | <5 |
| – | – | 0.794 | 3.98 | – | – | – | CC(C)CN(c1ccc([C@H](C)CC(=O)O)cc1Nc1ccc(C#N)cn1)C1CCCCC1 [Example 73, (R)-3-(3-((5-cyanopyridin-2-yl)amino)-4-(cyclohexyl(isobutyl)amino)phenyl)butanoic Acid] | <5 | <5 |
| – | – | 2000 | 2510 | – | – | – | CC(C)CN(c1ccc(C(C)CC(=O)O)cc1NCc1ccccn1)C1CCCCC1 (stereo not drawn) [example 161, 3-{4-[cyclohexyl(2-methylpropyl)amino]-3-{[(pyridin-2-yl)methyl]amino}phenyl} butanoic acid] | <5 | <5 |
| – | – | 3.98 | 10 | – | – | – | CO[C@H]1CC[C@H](N(CC(C)C)c2ccc(-c3ccccc3C(=O)O)cc2Nc2nc(C(F)(F)F)ns2)CC1 [Example 111, 4′-(isobutyl((1r,4r)-4-methoxycyclohexyl)amino)-3′-((3-(trifluoromethyl)-1,2,4-thiadiazol-5-yl)amino)-[1,1′-biphenyl]-2-carboxylic Acid] | <5 | <5 |
| – | – | 6310 | > 10000 | – | – | – | CC(C)CN(CC(C)C)c1ccc(C(C)CC(=O)O)cc1-n1nnnc1N (stereo not drawn) [example 167, 3-[3-(5-amino-1H-1,2,3,4-tetrazol-1-yl)-4-[bis(2-methylpropyl)amino]phenyl]butanoic acid] | <5 | <5 |
| – | – | 200 | 501 | – | – | – | Cc1nsc(Nc2cc(-c3ccccc3C(=O)O)ccc2N(CC(C)C)CC(C)C)n1 [example 286, 4′-[bis(2-methylpropyl)amino]-3′-[(3-methyl-1,2,4-thiadiazol-5-yl)amino]-[1,1′-biphenyl]-2-carboxylic acid] | <5 | <5 |
| – | – | 2 | 6.31 | – | – | – | CC(C)CN(c1ccc([C@H](C)CC(=O)O)cc1Nc1ccc(Cl)nc1)[C@H]1CC[C@H](O)CC1 [Example 49, (R)-3-(3-((6-chloropyridin-3-yl)amino)-4-(((1r,4R)-4-hydroxycyclohexyl) (isobutyl)amino)phenyl)butanoic Acid] | <5 | <5 |
| – | – | 1 | 5.01 | – | – | – | CC(C)CN(c1ccc(-c2ccccc2C(=O)O)cc1Nc1nc(C(F)(F)F)ns1)C1CCN(c2nc(C(F)(F)F)ns2)CC1 [Example 92, 4′-(isobutyl(1-(3-(trifluoromethyl)-1,2,4-thiadiazol-5-yl)piperidin-4-yl)amino)-3′-((3-(trifluoromethyl)-1,2,4-thiadiazol-5-yl)amino)-[1,1′-biphenyl]-2-carboxylic Acid] | 6.1 | <5 |
| – | – | 31.6 | 316 | – | – | – | CC(C)CN(c1ccc(-c2cccnc2C(=O)O)cc1Nc1nc(C(F)(F)F)ns1)C1CCOCC1 [example 269, 3-{4-[(2-methylpropyl)(oxan-4-yl)amino]-3-{[3-(trifluoromethyl)-1,2,4-thiadiazol-5-yl]amino}phenyl}pyridine-2-carboxylic acid] | <5 | <5 |
| – | – | 3.98 | 7.94 | – | – | – | CC(C)CN(CC(C)C)c1ccc([C@H](C)CC(=O)O)cc1Nc1nnc(C(F)(F)F)s1 [Example 87, (R)-3-(4-(diisobutylamino)-3-((5-(trifluoromethyl)-1,3,4-thiadiazol-2-yl)amino)phenyl)butanoic Acid] | <5 | <5 |
| – | – | – | – | 6.89 | 6.86 | 8.5 | CC(C)CN(CC(C)C)c1ccc(C2(CC(=O)O)CC2)cc1Nc1nc(C(F)(F)F)ns1 [Example 110, 2-(1-(4-(diisobutylamino)-3-((3-(trifluoromethyl)-1,2,4-thiadiazol-5-yl)amino)phenyl)cyclopropyl)acetic Acid] | 5.2 | – |
| – | – | 2.51 | 3.98 | – | – | – | CC(C)CN(c1ccc([C@@H](C)CC(=O)O)cc1Nc1ccnc(Cl)n1)C1CCCCC1 [example 300] | <5 | <5 |
| – | – | 398 | 1000 | – | – | – | CC(C)CN(c1ccc(C(C)CC(=O)O)cc1NCc1ccc(F)c(F)c1)C1CCCCC1 (stereo not drawn) [example 162, 3-{4-[cyclohexyl(2-methylpropyl)amino]-3-{[(3,4-difluorophenyl)methyl]amino}phenyl}butanoic acid] | <5 | <5 |
| – | – | 39.8 | 50.1 | – | – | – | CC(C)CN(c1ccc([C@H](C)CC(=O)O)cc1Nc1nnc(C2CC2)[nH]1)C1CCOCC1 [example 210, (3R)-3-{3-[(5-cyclopropyl-4H-1,2,4-triazol-3-yl)amino]-4-[(2-methylpropyl)(oxan-4-yl)amino]phenyl}butanoic acid] | <5 | <5 |
| 72.4 | 50.1 | 2 | – | – | – | – | CC(C)CC(=O)N1CCC(N(CC(C)C)c2ccc([C@H](C)CC(=O)O)cc2Nc2nc(C(F)(F)F)ns2)CC1 [Example 67, (R)-3-(4-(isobutyl(1-(3-methylbutanoyl)piperidin-4-yl)amino)-3-((3-(trifluoromethyl)-1,2,4-thiadiazol-5-yl)amino)phenyl)butanoic Acid] | <5 | – |
